Experimental data reported in US8916574B2, “4-(substituted anilino)-quinazoline derivatives useful as tyrosine kinase inhibitors” (Qilu Pharmaceutical Co., Ltd., priority 2009, dated 2014).
Like-named read-outs stand apart in the source and are kept apart here.

Columns and labels:
[1] = molecular target: EGFR receptor tyrosine kinase (Homo sapiens (Human), UniProt P00533); assay: In vitro kinase analysis, HTScan EGF Receptor Kinase Assay Kit (substrate peptide phosphorylation); type: biochemical
Procedure: (§1) Operation steps refer to the specification of the used kits, and the method was used to measure the inhibition effects of the compound to be tested on substrate peptide phosphorylation of EGFR or Her2 receptor tyrosine kinase. At room temperature, ATP and substrate peptide as well as the compound to be tested were incubated in kinase reaction buffer, after a period of incubation, a stop buffer was added to terminate the reaction and the sample was transferred to a streptavidin-coated 96-well plate, the plate was washed and the phosphorylation level of substrate peptide was detected by using HRP-marked antibody against substrate phosphorylation, colorated with TMB, terminated the reaction with 2M sulfuric acid. Absorption at 450 nm wavelength was detected, and IC50 value (μM) was calculated.

[2] = molecular target: Her2 receptor tyrosine kinase (Homo sapiens (Human), UniProt P04626); assay: In vitro kinase analysis, HTScan HER2/ErbB2 Kinase Assay Kit (substrate peptide phosphorylation); type: biochemical
Procedure: as §1

[3] = tested on: human gastric cancer cell line NCI-N87; assay: Test of cell proliferation inhibition (SRB), N87; type: cell-based; conditions: for IC50: Homo sapiens, NCI-N87, 72 h, read-out: Test of cell proliferation inhibition IC50 N87
Procedure: (§2) The test was performed by referring to the method as described by Rusnak et al., Cell Prolif, 2007, 40, 580-594. The test of cell proliferation inhibition used human breast cancer cells BT474 and human gastric cancer cell line NCI-N87, BT474 over-expressing Her2 receptor, N87 over-expressing EGFR and Her2 receptor.
(§3) In a Dulbecco Modified Eagle Medium (DMEM) comprising 10% fetal bovine serum, 2 mM glutamine and non-essential amino acids, cells were cultured at 37° C. in 5% CO2 cell incubator, and trypsin/ethylenediamine tetraacetic acid (EDTA) were used to harvest cells in cell culture bottle. […] The change of cell form was observed under microscope, then 50 μl 50% (mass/volume)trichloroacetic acid (TCA) was added to per well to fix cells. The final concentration of TCA was 10%, standing for 5 min and placing in 4° C. refrigerator for 1 h, the wells of the culture plate were washed with deionized water for 5 times to remove TCA, drained, dried in air until no wet trace was observed. 100 μl of 0.4% (mass/volume) SRB was added to each well, stood at room temperature for 10 min, the liquid in each well was discarded, then the wells were washed with 1% acetic acid for 5 times, dried in air, extracted with 150 μl of 10 mM Tris base (trihydroxymethylaminomethane, pH 10.5), the absorption at 540 nm wavelength was detected.

[4] = tested on: human gastric cancer NCI-N87 transplanted tumor; assay: Tumor inhibition at a single dose, NCI-N87 transplanted tumor in nude mice; type: in vivo, BALB/cA-nude mice; conditions: 200 mg/kg intragastrically, once per day, 28 days; for Rate of tumor inhibition d21 (%): head prints d21; for d28 Vave (tumor volume): in mm³; for Animal number in each group: Partial regression: of 6 animals
Source text: (§4) BALB/cA-nude mice, female, 4-6 weeks, body weight 22±2 g, were purchased from Shanghai SLAC Laboratory Animal Co. Ltd, raised in SPF grade environment.
(§5) In vitro cultured NCI-N87 cells were subcutaneously inoculated at right axillary fossa of nude mice, each was inoculated with about 5×10^6 cells, and passaged twice in vivo after tumor formation. Under sterile conditions, eugonic tumor tissues were cut into tumor pieces of about 1.5 mm^3, and inoculated at right axillary fossa of nude mice. Tumor diameters were measured by vernier caliper, the animals were randomly divided (d0) after the tumors grew to 100-200 mm^3. […] During administration period, the body weight of mice and the diameter of tumors were measured 3 times per week. The tumor volume and relative tumor volume were calculated according to the measured data, the formulation for calculating tumor volume (TV) is: TV=½×a×b^2, wherein a, b represent major diameter and minor diameter of tumor; the formulation for calculating relative tumor volume (RTV) is: RTV=Vt/V0, wherein V0 is the tumor volume measured when dividing groups for administration (i.e., d0), Vt is tumor volume measured each time. […] The formulation for calculating relative tumor inhibition rate is: 1−T/C (%).

[5] = tested on: human ovarian cancer SK-OV-3 transplanted tumor; assay: Tumor inhibition at a single dose, SK-OV-3 transplanted tumor in nude mice; type: in vivo, BALB/cA-nude mice; conditions: 200 mg/kg intragastrically, once per day, 21 days; for Animal number in each group: Partial regression: of 6 animals
Source text: as §4, §5
(§6) Nude mice were subcutaneously inoculated with human ovarian cancer SK-OV-3 cells, after tumors grew to 60-150 mm^3, the animals were randomly divided into groups (d0). […] During the administration period, the body weight of mice and the diameter of tumor were measured 3 times per week. The tumor volume, relative tumor inhibition rate and so on were calculated according to the aforementioned methods.

[6] = tested on: human ovarian cancer SK-OV-3 transplanted tumor; assay: Tumor inhibition at different dosages, SK-OV-3 transplanted tumor in nude mice; type: in vivo, BALB/cA-nude mice; conditions: once per day, 21 days; for Animal number in each group: Partial regression: of 6 animals
Source text: as §4, §5
as §6, with “The tumor volume, and” for “During the administration period, the”, “mice” for “mice and the diameter of tumor”, “week, and all data were recorded.” for “week.”

[7] = Pharmacokinetics in SD rats after a single intragastric dose; type: in vivo; conditions: 100 mg/kg intragastric single dose, plasma
Procedure: The animals were fasted for 12 h before test, drinking water freely. And fed after 2 h of administration. At 0.25, 0.5, 1.0, 2.0, 3.0, 5.0, 7.0, 9.0, 12 and 24 h after administration, 0.3 ml blood samples were taken from venous plexus behind eyeball of rats into heparinized test tubes, then centrifuged at 11000 rpm for 5 min, plasma were separated, and preserved at […]. The concentrations of drug in original form and metabolites thereof in plasma were measured by liquid chromatography-mass spectrometry.

[8] = tested on: human breast cancer cells BT474; assay: Test of cell proliferation inhibition (SRB), BT474; type: cell-based; conditions: BT-474, 72 h
Procedure: as §2, §3

[9] = molecular target: hERG potassium currents (IKr) (Homo sapiens (Human), UniProt Q12809); assay: hERG potassium currents, whole cell patch clamp in transfected HEK293 cells; type: cell-based; conditions: HEK293 cells transfected with hERG cDNA
Chain of hERG potassium currents (IKr) (Q12809 whole entry): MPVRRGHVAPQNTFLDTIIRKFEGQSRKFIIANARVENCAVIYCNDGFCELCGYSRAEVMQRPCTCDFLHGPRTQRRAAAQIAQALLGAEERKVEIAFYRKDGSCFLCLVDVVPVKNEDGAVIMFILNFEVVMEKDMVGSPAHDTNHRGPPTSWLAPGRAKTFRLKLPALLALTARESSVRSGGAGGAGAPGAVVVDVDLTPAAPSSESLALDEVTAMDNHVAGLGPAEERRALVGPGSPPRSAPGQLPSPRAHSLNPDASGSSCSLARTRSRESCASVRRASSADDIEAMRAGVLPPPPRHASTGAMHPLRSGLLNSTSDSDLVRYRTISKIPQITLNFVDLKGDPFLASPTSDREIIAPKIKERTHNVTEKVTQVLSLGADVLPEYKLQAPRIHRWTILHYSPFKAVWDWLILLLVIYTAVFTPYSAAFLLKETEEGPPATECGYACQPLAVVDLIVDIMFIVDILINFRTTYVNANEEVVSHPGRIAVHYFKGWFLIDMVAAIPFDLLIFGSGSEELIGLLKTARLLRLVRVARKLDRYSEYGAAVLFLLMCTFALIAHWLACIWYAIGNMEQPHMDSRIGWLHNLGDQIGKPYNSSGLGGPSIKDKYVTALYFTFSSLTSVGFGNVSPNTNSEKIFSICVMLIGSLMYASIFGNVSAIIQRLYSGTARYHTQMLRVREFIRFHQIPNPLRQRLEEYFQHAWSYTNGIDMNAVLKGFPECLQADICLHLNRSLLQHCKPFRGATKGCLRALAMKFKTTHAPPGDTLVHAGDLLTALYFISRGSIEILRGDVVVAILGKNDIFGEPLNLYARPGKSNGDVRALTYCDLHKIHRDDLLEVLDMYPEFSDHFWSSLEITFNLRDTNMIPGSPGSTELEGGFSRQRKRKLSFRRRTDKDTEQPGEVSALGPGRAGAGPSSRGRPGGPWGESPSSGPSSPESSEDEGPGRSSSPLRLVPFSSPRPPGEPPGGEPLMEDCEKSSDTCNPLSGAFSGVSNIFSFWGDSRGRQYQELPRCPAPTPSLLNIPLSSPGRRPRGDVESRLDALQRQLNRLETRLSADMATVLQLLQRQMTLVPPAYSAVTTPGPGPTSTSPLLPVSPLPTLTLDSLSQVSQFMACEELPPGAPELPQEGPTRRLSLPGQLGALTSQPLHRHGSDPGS

Chain of Her2 receptor tyrosine kinase (P04626 23-1255): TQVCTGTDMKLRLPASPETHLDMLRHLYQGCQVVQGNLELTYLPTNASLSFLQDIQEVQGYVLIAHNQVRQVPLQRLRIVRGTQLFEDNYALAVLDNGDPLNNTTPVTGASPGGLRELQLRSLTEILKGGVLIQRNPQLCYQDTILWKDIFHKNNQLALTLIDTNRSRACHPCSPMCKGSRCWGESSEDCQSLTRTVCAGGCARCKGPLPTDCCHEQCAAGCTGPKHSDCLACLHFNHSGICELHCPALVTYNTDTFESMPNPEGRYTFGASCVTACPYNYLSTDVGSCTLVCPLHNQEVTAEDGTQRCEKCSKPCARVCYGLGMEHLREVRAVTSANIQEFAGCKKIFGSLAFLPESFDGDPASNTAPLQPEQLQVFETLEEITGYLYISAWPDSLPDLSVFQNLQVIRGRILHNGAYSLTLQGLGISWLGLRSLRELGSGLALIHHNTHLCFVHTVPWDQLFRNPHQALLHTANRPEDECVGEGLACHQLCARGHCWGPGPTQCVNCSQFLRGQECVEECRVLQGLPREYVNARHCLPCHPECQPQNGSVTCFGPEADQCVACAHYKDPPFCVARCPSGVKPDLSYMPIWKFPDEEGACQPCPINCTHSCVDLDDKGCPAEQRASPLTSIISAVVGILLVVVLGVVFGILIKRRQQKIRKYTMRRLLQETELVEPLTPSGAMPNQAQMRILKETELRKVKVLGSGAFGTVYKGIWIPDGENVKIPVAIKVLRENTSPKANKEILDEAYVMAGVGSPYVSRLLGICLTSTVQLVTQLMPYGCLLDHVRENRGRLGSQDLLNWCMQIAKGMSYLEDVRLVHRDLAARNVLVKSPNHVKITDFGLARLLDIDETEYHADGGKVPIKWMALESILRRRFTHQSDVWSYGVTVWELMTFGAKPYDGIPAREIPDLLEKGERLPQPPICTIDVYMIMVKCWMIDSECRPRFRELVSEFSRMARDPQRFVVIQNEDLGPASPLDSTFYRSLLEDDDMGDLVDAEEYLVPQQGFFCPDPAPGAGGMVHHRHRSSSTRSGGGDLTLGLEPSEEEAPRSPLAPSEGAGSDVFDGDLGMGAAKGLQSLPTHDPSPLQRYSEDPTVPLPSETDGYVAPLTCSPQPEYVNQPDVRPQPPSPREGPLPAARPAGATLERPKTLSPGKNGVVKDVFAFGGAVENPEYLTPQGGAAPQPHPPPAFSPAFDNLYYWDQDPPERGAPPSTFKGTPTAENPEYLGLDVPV
Chain of EGFR receptor tyrosine kinase (P00533 25-1210): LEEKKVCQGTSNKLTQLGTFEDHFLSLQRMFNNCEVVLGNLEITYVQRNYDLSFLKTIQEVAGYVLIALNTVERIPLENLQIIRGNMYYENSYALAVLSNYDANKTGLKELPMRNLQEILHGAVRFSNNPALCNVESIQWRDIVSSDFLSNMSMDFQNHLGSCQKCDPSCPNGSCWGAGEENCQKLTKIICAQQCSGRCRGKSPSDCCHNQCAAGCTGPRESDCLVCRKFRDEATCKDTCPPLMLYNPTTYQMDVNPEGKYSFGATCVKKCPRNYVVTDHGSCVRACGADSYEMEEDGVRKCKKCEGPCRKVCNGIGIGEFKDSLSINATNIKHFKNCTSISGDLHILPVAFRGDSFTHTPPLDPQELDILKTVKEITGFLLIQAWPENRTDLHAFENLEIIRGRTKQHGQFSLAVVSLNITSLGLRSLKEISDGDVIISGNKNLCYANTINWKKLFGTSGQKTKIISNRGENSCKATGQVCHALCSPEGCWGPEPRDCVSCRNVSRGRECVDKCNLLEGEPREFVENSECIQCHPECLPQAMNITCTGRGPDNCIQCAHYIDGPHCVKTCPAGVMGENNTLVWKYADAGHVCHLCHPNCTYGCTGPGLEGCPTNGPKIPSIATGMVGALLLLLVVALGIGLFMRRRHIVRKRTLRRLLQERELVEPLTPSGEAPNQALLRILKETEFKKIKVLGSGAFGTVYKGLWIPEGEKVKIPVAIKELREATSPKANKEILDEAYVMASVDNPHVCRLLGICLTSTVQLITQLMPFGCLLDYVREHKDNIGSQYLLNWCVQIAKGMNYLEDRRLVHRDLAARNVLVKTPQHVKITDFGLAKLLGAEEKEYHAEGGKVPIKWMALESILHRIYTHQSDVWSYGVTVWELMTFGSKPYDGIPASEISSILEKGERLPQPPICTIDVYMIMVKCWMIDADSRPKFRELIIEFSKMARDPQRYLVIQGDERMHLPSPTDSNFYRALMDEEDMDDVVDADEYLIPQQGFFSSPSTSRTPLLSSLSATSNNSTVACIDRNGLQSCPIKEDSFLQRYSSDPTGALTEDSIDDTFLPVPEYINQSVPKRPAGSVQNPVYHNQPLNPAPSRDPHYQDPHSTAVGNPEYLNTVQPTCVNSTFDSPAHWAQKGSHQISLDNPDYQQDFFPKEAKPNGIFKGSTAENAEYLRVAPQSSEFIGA

| Compound | IC50 [1] | IC50 [2] | Rate of tumor inhibition d21 (%) [4] | d28 Vave (tumor volume) [4] | Animal number in each group: Partial regression [4] | Rate of tumor inhibition d21 (%) [5] | d21 Vave (tumor volume) [5] | Animal number in each group: Partial regression [5] | IC50 [3] | IC50 [8] | other results |
| --- | --- | --- | --- | --- | --- | --- | --- | --- | --- | --- | --- |
| CS(=O)(=O)NCCNCc1ccc(-c2ccc3ncnc(Nc4ccc(OCc5cccc(F)c5)c(Cl)c4)c3c2)o1 [Compound 4, N-(4-(3-fluorobenzyloxy)-3-chlorophenyl)-6-(5-((2-(methylsulfonamido)ethylamino)methyl)-2-furyl)-quinazolin-4-amine] | 15.5 nM | 7.06 nM | – | – | – | – | – | – | – | – | – |
| CS(=O)(=O)CCNCc1ccc(-c2ccc3ncnc(Nc4ccc(OCc5cccc(F)c5)c(Cl)c4)c3c2)o1 [Compound 61, N-(4-(3-fluorobenzyloxy)-3-chlorophenyl)-6-(5-((2-(methylsulfonyl)ethylamino)methyl)-2-furyl)-quinazolin-4-amine, reference compound] | – | – | 89.8% | 106.20 | 5 | 79% | 291.0 mm^3 | 1 | – | – | biological activity results in the same test (in words) ([3]; same test as Table 1 (cell proliferation inhibition, N87 and BT474), comparison in words): close to those of compound 6; Rate of tumor inhibition d21 (%) ([6]; 200 mg/kg intragastrically): 75%; d21 Vave (tumor volume) ([6]; 200 mg/kg intragastrically): 350.1 mm^3; Animal number in each group: Partial regression ([6]; 200 mg/kg intragastrically): 0; AUC0-t ± SD [7]: 26908 ± 9085 ng·h/mL; AUC0-∞ ± SD [7]: 26921 ± 9092 ng·h/mL; Cmax ± SD [7]: 3902 ± 1208 ng/mL; MRT ± SD [7]: 5.52 ± 0.90 h; T1/2 ± SD [7]: 1.91 ± 0.45 h; Tmax ± SD [7]: 2.5 ± 0.6 h |
| CSCCNCc1ccc(-c2ccc3ncnc(Nc4ccc(OCc5cccc(F)c5)c(Cl)c4)c3c2)o1 [Compound 3, N-(4-(3-fluorobenzyloxy)-3-chlorophenyl)-6-(5-((2-(methylthio)ethylamino)methyl)-2-furyl)-quinazolin-4-amine] | 56.2 nM | 34.6 nM | 84.6% | 143.01 | 4 | 75% | 334.8 mm^3 | 0 | 24.9 nM | 23.4 nM | RTV (relative tumor volume) [4]: 0.743; RTV (relative tumor volume) [5]: 2.7; RTV (relative tumor volume) ([6]; 50 mg/kg intragastrically): 6.9; Rate of tumor inhibition d21 (%) ([6]; 50 mg/kg intragastrically): 32%; d21 Vave (tumor volume) ([6]; 50 mg/kg intragastrically): 830.7 mm^3; Animal number in each group: Partial regression ([6]; 50 mg/kg intragastrically): 0; RTV (relative tumor volume) ([6]; 100 mg/kg intragastrically): 6.5; Rate of tumor inhibition d21 (%) ([6]; 100 mg/kg intragastrically): 36%; d21 Vave (tumor volume) ([6]; 100 mg/kg intragastrically): 778.6 mm^3; Animal number in each group: Partial regression ([6]; 100 mg/kg intragastrically): 0; RTV (relative tumor volume) ([6]; 200 mg/kg intragastrically): 4.4; Rate of tumor inhibition d21 (%) ([6]; 200 mg/kg intragastrically): 56%; d21 Vave (tumor volume) ([6]; 200 mg/kg intragastrically): 612.6 mm^3; Animal number in each group: Partial regression ([6]; 200 mg/kg intragastrically): 0 |
| NS(=O)(=O)CCNCc1ccc(-c2ccc3ncnc(Nc4ccc(OCc5cccc(F)c5)c(Cl)c4)c3c2)o1 [Compound 1, N-(4-(3-fluorobenzyloxy)-3-chlorophenyl)-6-(5-((2-(sulfamoyl)ethylamino)methyl)-2-furyl)-quinazolin-4-amine] | – | 1.55 nM | – | – | – | – | – | – | – | – | – |
| O=S(=O)(CCNCc1ccc(-c2ccc3ncnc(Nc4ccc(OCc5cccc(F)c5)c(Cl)c4)c3c2)o1)CC(F)(F)F [Compound 5, N-(4-(3-fluorobenzyloxy)-3-chlorophenyl)-6-(5-((2-(2,2,2-trifluoroethylsulfonyl)ethylamino)methyl)-2-furyl)-quinazolin-4-amine] | 14.6 nM | 8.08 nM | 46.8% | 414.78 | 1 | 45% | 770.9 mm^3 | 0 | 33.7 nM | 18.8 nM | RTV (relative tumor volume) [4]: 2.574; RTV (relative tumor volume) [5]: 5.8 |
| O=S(=O)(CCNCc1ccc(-c2ccc3ncnc(Nc4ccc(OCc5cccc(F)c5)c(Cl)c4)c3c2)o1)C(F)(F)F [Compound 6, N-(4-(3-fluorobenzyloxy)-3-chlorophenyl)-6-(5-((2-(trifluoromethylsulfonyl)ethylamino)methyl)-2-furyl)-quinazolin-4-amine] | 32.4 nM | 25.6 nM | – | – | – | – | – | – | 54.6 nM | 49.7 nM | – |
| C[S+]([O-])CCNCc1ccc(-c2ccc3ncnc(Nc4ccc(OCc5cccc(F)c5)c(Cl)c4)c3c2)o1 (centres unmarked) [Compound 2, N-(4-(3-fluorobenzyloxy)-3-chlorophenyl)-6-(5-((2-(methylsulfinyl)ethylamino)methyl)-2-furyl)-quinazolin-4-amine] | 52.7 nM | – | – | – | – | – | – | – | – | – | AUC0-t ± SD [7]: 50299 ± 12863 ng·h/mL; AUC0-∞ ± SD [7]: 53236 ± 12248 ng·h/mL; Cmax ± SD [7]: 8881 ± 2061 ng/mL; MRT ± SD [7]: 5.38 ± 0.59 h; T1/2 ± SD [7]: 2.32 ± 0.5 h; Tmax ± SD [7]: 3.5 ± 1.0 h; IC50 ([9]; read-out: semi-effective inhibition dose IC50 for IKr pulse current): 10100 ± 960 nM; IC50 ([9]; read-out: semi-effective inhibition dose IC50 for tail current): ~9240 nM |
